Measured values published in ChEMBL document CHEMBL3217554, “Fast and effective identification of the bioactive compounds and their targets from medicinal plants via computational chemical biology approach” (Medchemcomm, 2011).

biological target: Dipeptidyl peptidase 4 (Homo sapiens, UniProt P27487); assay: Inhibition of human DPP4 using H-Gly-Pro-AMC peptide substrate assessed as increase in fluorescence for 20 mins by fluorimetric assay
Sequence (P27487 whole entry): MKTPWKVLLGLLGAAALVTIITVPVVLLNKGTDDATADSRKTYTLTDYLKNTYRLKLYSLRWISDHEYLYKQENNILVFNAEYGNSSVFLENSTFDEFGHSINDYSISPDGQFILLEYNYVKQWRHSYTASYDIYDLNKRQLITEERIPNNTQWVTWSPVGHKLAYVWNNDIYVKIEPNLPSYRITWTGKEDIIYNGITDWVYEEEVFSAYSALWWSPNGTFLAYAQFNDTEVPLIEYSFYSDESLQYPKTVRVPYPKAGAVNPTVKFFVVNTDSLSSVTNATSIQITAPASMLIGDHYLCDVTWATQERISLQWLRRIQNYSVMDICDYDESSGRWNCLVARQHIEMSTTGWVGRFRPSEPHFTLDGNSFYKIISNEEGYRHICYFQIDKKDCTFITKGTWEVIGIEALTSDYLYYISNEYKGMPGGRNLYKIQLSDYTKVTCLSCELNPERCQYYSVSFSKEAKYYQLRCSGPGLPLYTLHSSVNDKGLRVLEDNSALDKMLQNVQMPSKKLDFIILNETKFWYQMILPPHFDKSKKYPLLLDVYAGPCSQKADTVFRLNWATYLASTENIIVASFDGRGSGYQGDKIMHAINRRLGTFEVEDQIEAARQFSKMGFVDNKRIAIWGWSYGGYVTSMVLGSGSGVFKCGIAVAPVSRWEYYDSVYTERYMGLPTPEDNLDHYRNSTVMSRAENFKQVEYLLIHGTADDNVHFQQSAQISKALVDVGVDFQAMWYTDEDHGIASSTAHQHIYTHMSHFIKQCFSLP

IC50	SMILES
87.1 µM	COc1cc2cc(Oc3ccc4ccc(=O)oc4c3)c(=O)oc2cc1O [DAPHNORETIN]
56.2 µM	COc1ccc2c(c1OC)CN(C)c1c-2ccc2cc3c(cc12)OCO3 [DIHYDROCHELERYTHRINE]
87.7 µM	CCOC(=O)/C=C/c1ccc(O)c(O)c1 [ETHYL CAFFEATE]
33.1 µM	COc1cc(O)c(C(=O)/C=C/c2ccc(O)cc2)c(OC)c1 [FLAVOKAWAIN C]
26.9 µM	O=C(/C=C/c1ccc(O[C@@H]2O[C@H](CO)[C@@H](O)[C@H](O)[C@H]2O)cc1)c1ccc(O)cc1O [ISOLIQUIRITIN]

Continued, compound first:

SMILES	IC50
O=C(CC(O)CCc1ccccc1)c1ccc(O)cc1 (stereo not drawn)	38.4 µM
COC(=O)C1(O)CC(O)C(O)C(OC(=O)/C=C/c2ccc(O)c(O)c2)C1 (stereo not drawn)	41.4 µM
CCOC(=O)c1c(O)cc(O)c2c1OC(c1ccc(O)cc1)CC2 (stereo not drawn)	114 µM
CC[C@H](CC[C@@H](C)[C@H]1CC[C@H]2[C@@H]3CC=C4C[C@@H](O)CC[C@]4(C)[C@H]3CC[C@]12C)C(C)C [BETA-SITOSTEROL]	28.8 µM
C=C(C)[C@@H]1CC[C@]2(C(=O)O)CC[C@]3(C)[C@H](CC[C@@H]4[C@@]5(C)CC[C@H](O)C(C)(C)[C@@H]5CC[C@]43C)[C@@H]12 [BETULINIC ACID]	55.8 µM
O=C(O)/C=C/c1ccc(O)cc1 [COUMARIC ACID]	83.2 µM
O=c1c(O)c(-c2cc(O)c(O)c(O)c2)oc2cc(O)cc(O)c12 [MYRICETIN]	37.1 µM
O=c1c(O)c(-c2ccc(O)c(O)c2)oc2cc(O)cc(O)c12 [QUERCETIN]	32.7 µM
